Legend:
bedstraw = experiment: Test B pre/postemergence bedstraw; format: in vivo, Galium aparine
Procedure, shortened: (§1)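 Test chemicals in a non-phytotoxic solvent mixture with surfactant were sprayed preemergence onto planted seeds and postemergence onto plants 2 to 18 cm tall (1- to 4-leaf stage). After twelve to sixteen days in a greenhouse, injury was visually rated against untreated controls from 0 (no effect) to 10 (complete control).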

blackgrass = experiment: Test B pre/postemergence blackgrass; format: in vivo, Alopecurus myosuroides
Procedure, shortened: as §1

surinam grass = experiment: Test B pre/postemergence surinam grass; format: in vivo, Brachiaria decumbens
Procedure, shortened: as §1

cocklebur = experiment: Test B pre/postemergence cocklebur; format: in vivo, Xanthium strumarium
Procedure, shortened: as §1

corn = experiment: Test B pre/postemergence corn; format: in vivo, Zea mays
Procedure, shortened: as §1

crabgrass = experiment: Test B pre/postemergence crabgrass; format: in vivo, Digitaria sanguinalis
Procedure, shortened: as §1

giant foxtail = experiment: Test B pre/postemergence giant foxtail; format: in vivo, Setaria faberii
Procedure, shortened: as §1

morningglory = experiment: Test B pre/postemergence morningglory; format: in vivo, Ipomoea hederacea
Procedure, shortened: as §1

pigweed = experiment: Test B pre/postemergence pigweed; format: in vivo, Amaranthus retroflexus
Procedure, shortened: as §1

rape = experiment: Test B pre/postemergence rape; format: in vivo, Brassica napus
Procedure, shortened: as §1

soybean = experiment: Test B pre/postemergence soybean; format: in vivo, Glycine max
Procedure, shortened: as §1

sugar beet = experiment: Test B pre/postemergence sugar beet; format: in vivo, Beta vulgaris
Procedure, shortened: as §1

velvetleaf = experiment: Test B pre/postemergence velvetleaf; format: in vivo, Abutilon theophrasti
Procedure, shortened: as §1

wheat = experiment: Test B pre/postemergence wheat; format: in vivo, Triticum aestivum
Procedure, shortened: as §1

wild oat = experiment: Test B pre/postemergence wild oat; format: in vivo, Avena fatua
Procedure, shortened: as §1

purple nutsedge = experiment: Test B pre/postemergence purple nutsedge; format: in vivo, Cyperus rotundus
Procedure, shortened: as §1

[1] = Postemergence, Rate 62 g/ha, scale 0 to 10, 0 is no effect, 10 is complete control
[2] = Postemergence, Rate 125 g/ha, scale of 0 to 10 where 0 is no effect and 10 is complete control
[3] = Postemergence, Rate 500 g/ha, scale 0 (no effect) to 10 (complete control)
[4] = Preemergence, Rate 250 g/ha, scale 0 (no effect) to 10 (complete control)
[5] = Rate 62 g/ha, Preemergence, scale 0 to 10
[6] = Rate 125 g/ha, Preemergence, scale 0 to 10 (0 no effect, 10 complete control)
[7] = Rate 250 g/ha, Postemergence, scale 0 to 10, 0 is no effect, 10 is complete control
[8] = Rate 500 g/ha, Preemergence, scale 0 to 10 (0 no effect, 10 complete control)

SMILES: CCOC(CC)n1c(=O)on(C(=O)N(c2ccc(Cl)cc2)C(C)C)c1=O (stereo not drawn) [Compound 772]
- Plant response rating, Bedstraw (bedstraw; [1]): 0
- Bedstraw plant response rating (bedstraw; [2]): 0
- Bedstraw plant response rating (bedstraw; [3]): 0
- Bedstraw plant response rating (bedstraw; [4]): 0
- Bedstraw plant response rating (bedstraw; [5]): 0
- Bedstraw plant response rating (bedstraw; [6]): 0
- Bedstraw plant response rating (bedstraw; [7]): 0
- Bedstraw plant response rating (bedstraw; [8]): 0
- Plant response rating, Blackgrass (blackgrass; [1]): 0
- Blackgrass plant response rating (blackgrass; [2]): 0
- Blackgrass plant response rating (blackgrass; [3]): 0
- Blackgrass plant response rating (blackgrass; [4]): 0
- Blackgrass plant response rating (blackgrass; [5]): 0
- Blackgrass plant response rating (blackgrass; [6]): 0
- Blackgrass plant response rating (blackgrass; [7]): 0
- Blackgrass plant response rating (blackgrass; [8]): 0
- Plant response rating, B. signalgrass (surinam grass; [1]): 0
- B. signalgrass plant response rating (surinam grass; [2]): 0
- B. signalgrass plant response rating (surinam grass; [4]): 0
- B. signalgrass plant response rating (surinam grass; Rate 62 g/ha, Preemergence, scale 0 (no effect) to 10 (complete control)): 0
- B. signalgrass plant response rating (surinam grass; [6]): 0
- B. signalgrass plant response rating (surinam grass; [7]): 0
- B. signalgrass plant response rating (surinam grass; Rate 500 g/ha, Postemergence, scale 0 to 10, 0 is no effect, 10 is complete control): 0
- B. signalgrass plant response rating (surinam grass; [8]): 0
- Plant response rating, Cocklebur (cocklebur; [1]): 0
- Cocklebur plant response rating (cocklebur; [2]): 0
- Cocklebur plant response rating (cocklebur; [3]): 0
- Cocklebur plant response rating (cocklebur; [4]): 0
- Cocklebur plant response rating (cocklebur; [5]): 0
- Cocklebur plant response rating (cocklebur; [6]): 0
- Cocklebur plant response rating (cocklebur; [7]): 0
- Cocklebur plant response rating (cocklebur; [8]): 0
- Plant response rating, Corn (corn; [1]): 0
- Corn plant response rating (corn; [2]): 0
- Corn plant response rating (corn; [3]): 0
- Corn plant response rating (corn; [4]): 0
- Corn plant response rating (corn; [5]): 0
- Corn plant response rating (corn; [6]): 0
- Corn plant response rating (corn; [7]): 0
- Corn plant response rating (corn; [8]): 0
- Plant response rating, Crabgrass (crabgrass; [1]): 0
- Crabgrass plant response rating (crabgrass; [2]): 0
- Crabgrass plant response rating (crabgrass; [3]): 0
- Crabgrass plant response rating (crabgrass; [4]): 0
- Crabgrass plant response rating (crabgrass; [5]): 0
- Crabgrass plant response rating (crabgrass; [6]): 0
- Crabgrass plant response rating (crabgrass; [7]): 0
- Crabgrass plant response rating (crabgrass; [8]): 0
- Plant response rating, Giant foxtail (giant foxtail; [1]): 0
- Giant foxtail plant response rating (giant foxtail; [2]): 0
- Giant foxtail plant response rating (giant foxtail; [3]): 0
- Giant foxtail plant response rating (giant foxtail; [4]): 0
- Giant foxtail plant response rating (giant foxtail; [5]): 0
- Giant foxtail plant response rating (giant foxtail; [6]): 0
- Giant foxtail plant response rating (giant foxtail; [7]): 0
- Giant foxtail plant response rating (giant foxtail; [8]): 0
- Plant response rating, Morningglory (morningglory; [1]): 0
- Morningglory plant response rating (morningglory; [2]): 0
- Morningglory plant response rating (morningglory; [3]): 2
- Morningglory plant response rating (morningglory; [5]): 0
- Morningglory plant response rating (morningglory; [6]): 0
- Morningglory plant response rating (morningglory; [7]): 0
- Morningglory plant response rating (morningglory; [8]): 0
- Plant response rating, Redroot pigweed (pigweed; [1]): 0
- Redroot pigweed plant response rating (pigweed; [2]): 0
- Redroot pigweed plant response rating (pigweed; [3]): 0
- Redroot pigweed plant response rating (pigweed; [5]): 0
- Redroot pigweed plant response rating (pigweed; [6]): 0
- Redroot pigweed plant response rating (pigweed; [7]): 0
- Redroot pigweed plant response rating (pigweed; [8]): 0
- Plant response rating, Rape (rape; [1]): 0
- Rape plant response rating (rape; [2]): 0
- Rape plant response rating (rape; [3]): 0
- Rape plant response rating (rape; [5]): 0
- Rape plant response rating (rape; [6]): 0
- Rape plant response rating (rape; [7]): 0
- Rape plant response rating (rape; [8]): 0
- Plant response rating, Soybean (soybean; [1]): 0
- Soybean plant response rating (soybean; [3]): 0
- Soybean plant response rating (soybean; [5]): 0
- Soybean plant response rating (soybean; [6]): 0
- Soybean plant response rating (soybean; [7]): 0
- Soybean plant response rating (soybean; [8]): 0
- Plant response rating, Sugarbeets (sugar beet; [1]): 0
- Sugarbeets plant response rating (sugar beet; [3]): 0
- Sugarbeets plant response rating (sugar beet; [5]): 0
- Sugarbeets plant response rating (sugar beet; [6]): 0
- Sugarbeets plant response rating (sugar beet; [7]): 0
- Sugarbeets plant response rating (sugar beet; [8]): 0
- Plant response rating, Velvetleaf (velvetleaf; [1]): 0
- Velvetleaf plant response rating (velvetleaf; [3]): 0
- Velvetleaf plant response rating (velvetleaf; [5]): 0
- Velvetleaf plant response rating (velvetleaf; [6]): 0
- Velvetleaf plant response rating (velvetleaf; [7]): 0
- Velvetleaf plant response rating (velvetleaf; [8]): 0
- Plant response rating, Wheat (wheat; [1]): 0
- Wheat plant response rating (wheat; [3]): 0
- Wheat plant response rating (wheat; [5]): 0
- Wheat plant response rating (wheat; [6]): 0
- Wheat plant response rating (wheat; [7]): 0
- Wheat plant response rating (wheat; [8]): 0
- Plant response rating, Wild oats (wild oat; [1]): 0
- Wild oats plant response rating (wild oat; [3]): 0
- Wild oats plant response rating (wild oat; [5]): 0
- Wild oats plant response rating (wild oat; [6]): 0
- Wild oats plant response rating (wild oat; [7]): 0
- Wild oats plant response rating (wild oat; [8]): 0
- Plant response rating, Nutsedge (purple nutsedge; [1]): 0
- Nutsedge plant response rating (purple nutsedge; [2]): 0
- Nutsedge plant response rating (purple nutsedge; [3]): 0
- Nutsedge plant response rating (purple nutsedge; [5]): 0
- Nutsedge plant response rating (purple nutsedge; [6]): 0
- Nutsedge plant response rating (purple nutsedge; [7]): 0
- Nutsedge plant response rating (purple nutsedge; [8]): 0

From patent US6737383B1, “Herbicidal oxadiazolidines” (priority 1999, dated 2004)
